Data on four molecules can be found in patent US20120189673A1, “POLYPEPTIDES AND USES THEREOF” (priority 2009, published 2012).

Data set [1] relates to erythrocytes.
Method: Hemolysis assay. EDTA-blood was centrifuged at 800 g for 10 min, whereafter plasma and buffy coat were removed. The erythrocytes were washed three times and resuspended in PBS, pH 7.4 to get a 5% suspension. The cells were then incubated with end-over-end rotation for 60 min at 37° C. in the presence of peptides (60 μM). 2% Triton X-100 (Sigma-Aldrich) served as positive control. The samples were then centrifuged at 800 g for 10 min and the supernatant was transferred to a 96 well microtiter plate. The absorbance of hemoglobin release was measured at λ 540 nm and is in the plot expressed as % of TritonX-100 induced hemolysis.
Data set [2] relates to intrinsic pathway of coagulation in normal human plasma. As to the kind of experiment: Clotting assay: activated partial thromboplastin time (aPTT). Format: biochemical. The method, then:
(§1) Clotting assays. All clotting times were measured using an Amelung coagulometer. Activated partial thromboplastin time (aPTT) was measured by incubating the peptides diluted in sterile water at the indicated concentrations, with 100 μL citrated human plasma for 1 minute followed by the addition of 100 μL aPTT reagent (aPTT Automate, Diagnostica Stago) for 60 seconds at 37° C. Clotting was initiated by the addition of 100 μL of a 25-mM CaCl2 solution. In the prothombrin time assay (PT), clotting was initiated by the addition of 100 μL Thrombomax with calcium (PT reagent; Sigma-Aldrich). For measuring the thrombin clotting time (TCT), clotting was initiated by the addition of 100 μL Accuclot thrombin time reagent (TCT reagent; Sigma-Aldrich).

In data set [3] the test system is extrinsic pathway of coagulation in normal human plasma. As to the kind of experiment: Clotting assay: prothrombin time (PT). It counts as biochemical. The method, then: as §1
The subject of data set [4] is thrombin induced fibrin network formation in normal human plasma. The data set can be described thus: Clotting assay: thrombin clotting time (TCT). Format: biochemical. The method, then:
as §1

The nature of data set [5]: Properties stated for FFF21 (FIG. 56).
Data set [6] relates to RAW macrophages. As to the kind of experiment: Nitric oxide induction in RAW macrophages by LPS with or without HRG. It counts as cell-based, murine. Particulars: 24 hours. The method, then:
Nitric oxide induction in RAW macrophages. Confluent cells were harvested and transferred to 96-wells plate (3.5×10^5/well). After adhesion cells were washed with phenol red-free DMEM (Gibco). E. Coli LPS (100 ng/ml), LL-37 (2 or 10 μM) or HRG (2 or 10 μM) was preincubated at 37° C. for 30 minutes and then transferred to the cells. For inhibition of NO induction, 5 µg/ml anti mouse TLR4 antibody, 10 or 100 µM GHH25 or 100 µg/ml heparin were used. The cells were stimulated for 24 hours and nitric oxide was determined using the Griess chemical method.
Nitric oxide induction in RAW macrophages. Confluent cells were harvested and transferred to 96-wells plate ([…]). After adhesion cells were washed with phenol red-free DMEM (Gibco). E. Coli LPS (100 ng/ml), LL-37 (2 or 10 μM) or HRG (2 or 10 μM) was preincubated at 37° C. for 30 minutes and then transferred to the cells. […] The cells were stimulated for 24 hours and nitric oxide was determined using the Griess chemical method.

Data set [7] deals with Human monocyte-derived macrophages. The data set can be described thus: TNF-α release from human macrophages. Format: cell-based. The conditions noted are these: 10 ng/ml LPS with or without HRG (2 μM); GHH25 10 and 100 μM; 24 hours. As to the method:
TNF-α release from human macrophages. Human monocyte-derived macrophages (hMDMs) were obtained from peripheral blood mononuclear cells (PBMCs) obtained from the blood of healthy donors using a Lymphoprep (Axis-Shield PoC AS) density gradient. PBMCs were seeded at concentrations of 3×10^6 cells/well into 24-well plates and cultured in RPMI1640 medium supplemented with 10% heat-inactivated autologous human plasma, 2 mM L-glutamine, and 50 μl/ml Antibiotic-Antimycotic (Gibco) in a humidified atmosphere of 5% CO2. After 24 h, non-adherent cells were removed and adherent monocytes were differentiated to macrophages for 10 days, with fresh medium changes every second day. […] After stimulation the supernatant was aspirated and TNF-α was measured using the TNF-α human ELISA kit (Invitrogen).

Data set [8] has as its system E. coli LPS induced sepsis in wildtype C57BL/6 mice. The data set can be described thus: LPS induced sepsis in wildtype mice, treatment with GHH25. Format: in vivo, mouse. The text has this: Animal experiments. The original knockout mice 129/B6-HRG^tm1wja1 were crossed with C57BL/6 mice (Taconic) for 14 generations to obtain uniform genetic background. These HRG-deficient mouse strain was called B6-HRG^tm1wja1 following ILAR (Institute of Laboratory Animal Resources) rules. Wildtype C57BL/6 control mice and C57BL/6 Hrg−/− mice (8-12 weeks, 27+/−4 g) were bred in the animal facility at Lund University. C57BL/6 Hrg^−/−, lacks the translation start point of exon 1 of the Hrg gene. Animals were housed under standard conditions of light and temperature and had free access to standard laboratory chow and water. In order to induce sepsis, 18 µg/g Escherichia coli 0111:B4 LPS were injected intraperitoneally into C57BL/6 or C57BL/6 Hrg−/− mice, divided into weight and sex matched groups. Survival and status was followed during seven days.
For treatment with GHH25 peptide, 1 mg of the peptide (diluted in 10 mM Tris, pH 7.4) or buffer only was injected intraperitoneal 30 minutes after LPS-challenge and survival and status was then followed.
Animal experiments. The original knockout mice 129/B6-HRG^tm1wja1 were crossed with C57BL/6 mice (Taconic) for 14 generations to obtain uniform genetic background. These HRG-deficient mouse strain was called B6-HRG^tm1wja1 following ILAR (Institute of Laboratory Animal Resources) rules. […]

The nature of data set [9]: LPS-binding slot-blot assay with iodinated LPS. On the set-up: species or system Escherichia coli. The conditions noted are these: 2 and 5 μg HRG on nitrocellulose; pH 7.4 or pH 5.5, with or without 0.15M NaCl. As to the method:
Radioiodination of heparin and LPS. The radioiodination of heparin (from porcine intestinal mucosa, Sigma-Aldrich) was performed as described previously. The iodination of LPS was performed as described by Ulevitch. 1 mg Escherichia coli 0111:B4 LPS was incubated in 50 mM p-OH benzimidate in borate buffer, pH 8, over night at 4° C., and then dialyzed against PBS, pH 7.4. LPS was then radiolabelled with ^125I using the chloramine T method, and unlabelled ^125I was then removed by dialysis.
Heparin and LPS-binding assay. 1, 2 and 5 μg of the synthetic peptides in 100 μl PBS pH 7.4 were applied onto nitrocellulose membranes (Hybond-C, Amersham Biosciences) using a slot-blot apparatus. Membranes were blocked for 1 h at room temperature with 2% bovine serum albumin in PBS pH 7.4 and then incubated with radiolabelled LPS (˜40 μg·mL^−1, 0.13×10^6 cpm·μg^−1) or radiolabelled heparin (˜10 μg·mL^−1, 0.4×10^6 cpm·μg^−1) for 1 h at room temperature in PBS, pH 7.4. […] A Bas 2000 radio-imaging system (Fuji Film, Tokyo, Japan) was used to visualize radioactivity.
Slot-blot assay. […] After LPS binding, membranes were washed 3 times, 10 min each time in the above buffers and visualized for radioactivity on Bas 2000 radioimaging system (Fuji, Japan). […]
Heparin and LPS-binding assay. […] A Bas 2000 radio-imaging system (Fuji Film, Tokyo, Japan) was used to visualize radioactivity.

For `CC[C@H](C)[C@H](NC(=O)[C@H](CCCCN)NC(=O)[C@H](CCC(=O)O)NC(=O)[C@H](CCCCN)NC(=O)[C@H](CO)NC(=O)[C@H](CCCCN)NC(=O)[C@H](CCCNC(=N)N)NC(=O)[C@H](Cc1ccccc1)NC(=O)[C@H](Cc1ccccc1)NC(=O)[C@H](CC(=O)O)NC(=O)CNC(=O)[C@H](CC(C)C)NC(=O)[C@@H](N)CC(C)C)C(=O)NCC(=O)N[C@@H](CCCCN)C(=O)N[C@@H](CCC(=O)O)C(=O)N[C@@H](Cc1ccccc1)C(=O)N[C@@H](CCCCN)C(=O)N[C@@H](CCCNC(=N)N)C(=O)N[C@H](C(=O)N[C@H](C(=O)N[C@@H](CCC(N)=O)C(=O)N[C@@H](CCCNC(=N)N)C(=O)N[C@H](C(=O)N[C@@H](CCCCN)C(=O)N[C@@H](CC(=O)O)C(=O)N[C@@H](Cc1ccccc1)C(=O)N[C@@H](CC(C)C)C(=O)N[C@@H](CCCNC(=N)N)C(=O)N[C@@H](CC(N)=O)C(=O)N[C@@H](CC(C)C)C(=O)N[C@H](C(=O)N1CCC[C@H]1C(=O)N[C@@H](CCCNC(=N)N)C(=O)N[C@H](C(=O)N[C@@H](CCC(=O)O)C(=O)N[C@@H](CO)C(=O)O)[C@@H](C)O)C(C)C)[C@@H](C)CC)C(C)C)[C@@H](C)CC` [LL-37], the “doses at which erythrocytes were readily permeabilized” value in data set [1] was more than 6 µM.

On to “FFFAKLNCRLYRKANKSSKLV [FFF21, Antithrombin III-derived peptide, aa 153-173 of antithrombin III, P01008]”, for which, in data set [2], the “activated partial thromboplastin time (aPTT)” value was “impairs the intrinsic pathway of coagulation”. Moreover, in [3], the “prothrombin time (PT)” value is on record as “not significantly affected”. Also, the “thrombin clotting time (TCT)” value in data set [4] was “not significantly affected”. Also, the “antibacterial and antiinflammatory properties” value in [5] was “antibacterial and antiinflammatory properties”.

GHHPHGHHPHGHHPHGHHPHGHHPH [GHH25]: the “LPS and HRG mediated NO release” value in data set [6] (100 ng/ml LPS with or without HRG (2 μM), GHH25 10 and 100 μM) is listed as “significantly decreased”. Further, the “TNF-α (HRG and LPS induced responses)” value in data set [7] is “inhibits HRG and LPS induced responses”. For the same molecule, the survival entry in data set [8] (1 mg GHH25 i.p. 30 minutes after E. coli LPS, followed seven days, p=0.03) was “significantly increased survival”. Moreover, the health status result in data set [8] (LPS induced sepsis, treatment with GHH25) was “Improved health status”.

B1: HRG: 67 kDa plasma protein histidine-rich glycoprotein, purified from human serum (protein, UniProt P04196 19-525, looked up)
Histidine-rich glycoprotein: VSPTDCSAVEPEAEKALDLINKRRRDGYLFQLLRIADAHLDRVENTTVYYLVLDVQESDCSVLSRKYWNDCEPPDSRRPSEIVIGQCKVIATRHSHESQDLRVIDFNCTTSSVSSALANTKDSPVLIDFFEDTERYRKQANKALEKYKEENDDFASFRVDRIERVARVRGGEGTGYFVDFSVRNCPRHHFPRHPNVFGFCRADLFYDVEALDLESPKNLVINCEVFDPQEHENINGVPPHLGHPFHWGGHERSSTTKPPFKPHGSRDHHHPHKPHEHGPPPPPDERDHSHGPPLPQGPPPLLPMSCSSCQHATFGTNGAQRHSHNNNSSDLHPHKHHSHEQHPHGHHPHAHHPHEHDTHRQHPHGHHPHGHHPHGHHPHGHHPHGHHPHCHDFQDYGPCDPPPHNQGHCCHGHGPPPGHLRRRGPGKGPRPFHCRQIGSVYRLPPLRKGEVLPLPEANFPSFPLPHHKHPLKPDNQPFPQSVSESCPGKFKSGFPQVSMFFTHTFPK
As to B1, in data set [6] (100 ng/ml LPS, HRG 2 and 10 μM, n=6, p=0.001), the “LPS mediated NO release” value was “significantly increased”. Moreover, the “binding of iodinated LPS” value in data set [9] is listed as “LPS-binding”.
